The substances below were run on HAS2 expression by a vitreous cell line (assay: HAS2 mRNA expression by RT-PCR after cytokine stimulation of the vitreous cell line). Details: cell line transfected with Smad2, 3 or 4; FIG. 5.
Type: cell-based, swine
Procedure: Next, expression of hyaluronic acid synthase (HAS)2 and the effect of PDGF-BB and/or TGF-β1 on the hyaluronic acid production in the established vitreous cell line were examined. The expression was observed by RT-PCR.
To be specific, when the vitreous cell line was 50-60% confluent, the medium of the cells was exchanged with DMEM containing 1% bovine serum and, after culturing for 24 hr, the cells were stimulated with TGF-β1 (10 ng/ml) and PDGF-BB (10 ng/ml). In a part of the examination, Smad2, 3 or 4 was transfected into the cell line after 6 hr from the medium exchange. The cells and culture supernatant were recovered at 3, 6, 24 and 48 hr after the cytokine stimulation (FIG. 2). Total RNA was extracted from the cells, cDNA was synthesized, and RT-PCR was performed using primers specific to HAS2. Using Roche FastStart High Fidelity PCR System, PCR was performed on Gene Amp PCR System 9700 (Applied Biosystems). The PCR conditions were as follows:
95° C. 2 min.→(95° C. 30 seconds→X° C. 30 seconds→72° C. […])×Y cycle→72° C. 7 min
X=60, Y=25 . . . beta-Actin

Row | Substance | expression of HAS2 under forced expression of Smad2, 3 or 4
1 | TGF-β1: cytokine used to stimulate the vitreous cell line (10 ng/ml) | resulted in the expression of HAS2

The substances below were run on VEGF mRNA expression by a vitreous cell line (assay: VEGF mRNA expression by RT-PCR after cytokine stimulation of the vitreous cell line). Details: cytokine 10 ng/ml, up to 48 hours; FIG. 7, FIG. 9.
Type: cell-based, swine
Procedure: Changes of VEGF expression due to cytokine stimulation in the vitreous cell line established in Example 1 were examined. The expression of VEGF at an mRNA level was examined by RT-PCR, and the expression at a protein level was examined by ELISA.
To be specific, when the vitreous cell line reached 50-60% confluent, the medium for the cells was exchanged with DMEM containing 1% bovine serum. […] Total RNA was extracted from the stimulated cells, cDNA was synthesized, and PCR was conducted using VEGF primers. The medium of the stimulated cells was used for ELISA. Since an appropriate antibody to swine VEGF is not available, VEGF protein concentration was measured by ELISA using an antibody to human VEGF, and the result was calculated as a reference value led from a human VEGF standard product. PCR was conducted using TOYOBO KOD plus kit and Gene PCR System 9700 (Applied Biosystem). The conditions of PCR were as follows:
95° C. 120 seconds; (95° C. 15 seconds, 62° C. 30 seconds, 68° C. 30 seconds)×30 cycles; 68° C. 90 seconds. ELISA was entrusted to Mitsubishi BCL.

Row | Substance | VEGF mRNA expression level
2 | IL-1β: cytokine used to stimulate the vitreous cell line (10 ng/ml) | a significant change in the VEGF mRNA expression level was not observed
3 | IL-6: cytokine named among other cytokines used for stimulation | a significant change in the VEGF mRNA expression level was not observed
4 | TGFβ | a significant change in the VEGF mRNA expression level was not observed
5 | PDGF-AA: cytokine used to stimulate the vitreous cell line (10 ng/ml) | a significant change in the VEGF mRNA expression level was not observed
6 | TNFα | a significant change in the VEGF mRNA expression level was not observed

— patent US20090068744A1, “VITREOUS CELL LINE” (SENJU PHARMACEUTICAL CO., LTD., priority 2006, published 2009)
